Assay results as given in publication PMC4257840 (Journal of Medicinal Chemistry, 2014).

Legend:
human plasma thrombin = biological target: T1, human plasma thrombin (Homo sapiens, UniProt P00734); assay: Protease counter-screening: Thrombin; format: biochemical; settings: test concentration 0.3-100 µM
T1 construct: thrombin in modified HEPES buffer pH 7.5; from tissue; host or cells: human plasma
Procedure: (§1) Appendix 7. Protease Counter -Screening
(§2) Protease counter-screeni ng was performed using the methods described below. Initial screening was conducted in duplicate using a single test substance concentration of 10 µ M .
(§3) Additional assays were conducted in replicate for selected pairin gs of test s ubstance and enz yme in order to enable the determination of IC50 values using conventional procedures.
(§4) Determination of K i was made using the Batch K i program (Biokin Ltd, Pullman, WA) to derive values from the Morrison equation: […]
(§5) Where [E ] is the active enz yme concentration, Kiapp is the apparent inhibition const ant, v 0 is the control velocit y in the absence of inhibitors, vb is the background velocity, v is the initial reaction velocit y in the presence of inhibitor, and I is the inhibitor concentration.Thence:
Where [S ] is the substrate concentration and KM is the Michealis constant.
Caspase 1: Activity against human recombinant caspase 1 expressed in E. coli was tested using Ac-YVAD- AMC as the substrate. Test compound or vehicle was pre- incubated with 600 […]
followed by excitation/emission at 485/535 nm. […]
AMC formation was read at 360 nm/465 nm.
Cathepsin L2: Human recombinant cathepsin L2 expressed in NS0 cells was used as the enzyme source. […] Form ation of AMC was measured at 360 […]
The amount of AMC formed was read spectrofluorimetricall y at 360 nm/465 nm. […]

Human recombinant MMP-3 = biological target: T2, Human recombinant MMP-3 (Homo sapiens, UniProt P08254); assay: Protease counter-screening: MMP-3; format: biochemical
T2 construct: host or cells: E. coli
Procedure: as §1, §2, §3, §4, §5
Where [S ] is the substrate concentration and KM is the Michealis constant. […]
Test compound or vehicle was pre- incubated with 600 […]
The reaction was […]
initiated by addition of 1 µM N-CH3-SO2-D-FGR-pNA for another 120 min incubation period. […]
Matrix metalloprotease-3 (MMP-3 ): Human recombinant MMP-3 proenz yme expressed in E. coli was activated with 4-aminophen yl mercuric acetate (APMA) for 60 min at 37 °C. […] The amount of MCA-PLG formed was read spectrofluorimetricall y at 340 nm/400 nm.

[1] = Pharmacokinetics after oral and iv dosing to rats; format: in vivo, Sprague-Dawley rat; settings: rat
Procedure: Appendix 2. Pharmaco kinetics an d P l a s ma Protein Binding […]
Pharma cokinetics. In vivo PK characteristics were determined using non- fasted Sprague-Dawle y rats (mal e, 200-300 g, 10- 16 weeks of age) with groups of three animals per route per compound. Soluble formulations were developed and verified b y HP LC/UV s o that compounds were dosed discretel y b y the iv (1 mg/kg, 1 mL/kg) and po (5 mg/kg, 5 mL/kg) routes. Blood samples were obtained at various times after dosing and plasma prepared for LC -MS-MS quantification of the test substance after inclusion of an intern al standard . PK p aramet ers were calculated usin g a non -compartmental model in WinNonlin v5.2.
Plasma Protein Binding Assay. PPB was determined with a Rapid Equilibrium Dialysis device using 8 kDa molecular weight cut-off inserts (Fisher Scientific UK Ltd, Leicest ershire, UK) as described b y the manufacturer. R at (Sprague Dawl e y strain) plasma EDTA K2 (mixed gender, pooled, SeraLab, West Sussex, UK) was thawed and centrifuged at 13,000 x g for 10 min to remove precipitates before being spiked with compounds (5 µM). The concentrations of compounds in the plasma and buffer chambers were determined b y LC -MS-MS (AB Sciex 3200 QTrap) anal ysis after 4 h incubation at 37 °C. Binding was calculated from the concentration percentage in both chambers as shown below. Assays were p erfo rmed in replicate and the data

T2 sequence (P08254 100-477): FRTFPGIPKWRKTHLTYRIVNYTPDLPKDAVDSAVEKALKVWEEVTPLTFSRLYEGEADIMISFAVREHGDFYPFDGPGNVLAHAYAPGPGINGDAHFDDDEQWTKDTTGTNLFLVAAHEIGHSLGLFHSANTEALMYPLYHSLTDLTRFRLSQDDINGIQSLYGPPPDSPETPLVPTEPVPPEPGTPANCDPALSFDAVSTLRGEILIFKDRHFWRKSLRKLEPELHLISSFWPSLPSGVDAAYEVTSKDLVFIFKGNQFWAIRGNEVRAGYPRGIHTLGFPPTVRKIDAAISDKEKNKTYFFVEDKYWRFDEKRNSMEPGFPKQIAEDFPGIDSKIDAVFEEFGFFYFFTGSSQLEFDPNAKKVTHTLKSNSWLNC

CC(C)[C@H](NC(=O)[C@H](C)NC(=O)[C@@H](NC(=O)c1ccccc1)C(C)(C)C)C(=O)C(=O)NCc1ccccc1 [Compound 38, N-{(S)-1-[(S)-1-((S)-1-Benzylaminooxalyl-2-methyl-propylcarbamoyl)-ethylcarbamoyl]-2,2-dimethyl-propyl}-benzamide] showed an IC50 (human plasma thrombin) of over 100 µM, an inhibition at 10 µM (Human recombinant MMP-3) of 0% and a Cmax ([1]; male, Sprague-Dawley, plasma, 5 mg/kg po, mean ± SE, n = 3) of 732 ± 3 nM. For the same compound, the bioavailability ([1]; male, Sprague-Dawley, plasma, po, 5 mg/kg, 5 mg/kg po compared with 1 mg/kg iv, nonfasted Sprague–Dawley rats, mean ± SE, n = 3, read-out: F % (bioavailability)) was 33 ± 8% and the “free conc Cmax” value ([1]; 5 mg/kg po) was 29 ± 0 nM.
